{"source": "patent US8673343B2", "about": "“Preparation and administration of jojoba product for reducing weight, fat and blood lipid levels and for the prevention and treatment of cancer” (Yiwu Jiangr Bio-Technology HK Corp., priority 2001, dated 2014)", "origin": "cited, not measured here", "key": {"[1]": {"settings": "animal and human studies"}, "[2]": {"settings": "growing rats, long-term administration of lower doses"}}}
{"smiles": "CO[C@H]1[C@@H](OC)C[C@@H](O[C@@H]2O[C@H](CO)[C@@H](O)[C@H](O)[C@H]2O)/C(=C\\C#N)[C@@H]1O", "note": "[simmondsin, 2-(cyanomethylene)-3-hydroxy-4,5-dimethoxycyclohexyl beta-D-glucoside]", "values": [{"measurement": "other side effects commonly associated with cancer chemotherapy", "setting": "[1]", "result": "no other side effects"}, {"measurement": "side effects", "setting": "[2]", "result": "without showing any side effects"}, {"measurement": "sustained food intake inhibition", "setting": "[2]", "result": "about 20%"}]}
